# Starred links: 1 amine or outer side, 2 acyl side, 3 side chain; linkers in the order of their positions; H or OH if unused. Positions of bridges follow the written chain, without caps; N, C: chain ends. Non-standard residues stand in square brackets, D forms with d. Residues, ends and D or L forms follow the SMILES beside them. X1 = O=C([C@]1(CC=[*:3])CCCN1[*:1])[*:2]; αAllylPro = C=CC[C@@]1(C(=O)O)CCCN1; Ala(cPr) = N[C@@H](CC1CC1)C(=O)O; S5 = C=CCCC[C@](C)(N)C(=O)O
# Assays:
# [1] = CHI Log D measurement (chromatographic hydrophobicity index); settings: pH 7.4
# [2] = in vitro; parameters: dose or concentration left out as unconfirmed; settings: PAMPA, pH 7.4, PAMPA Pe
# [3] = PAMPA
# 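For % Retention in this document: Phospholipid-membrane PAMPA, donor and acceptor in DPBS pH 7.4 with 5% DMSO, 37 °C for 5 h, compound in each well quantified by reverse-phase HPLC-MS.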
# 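For Papp in this document: Phospholipid-membrane PAMPA, donor and acceptor in DPBS pH 7.4 with 5% DMSO, 37 °C for 5 h, compound in each well quantified by reverse-phase HPLC-MS.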
SMILES,chromatographic logD [1],Papp at 5 h [2],% Retention [3],"chromatographic logD ([1]; reverse-phase HPLC, Phenomenex Gemini C-18 column)"
"CNC(=O)[C@H](CC(=O)O)NC(=O)[C@H](CCC(N)=O)NC(=O)[C@H](CC(C)C)NC(=O)[C@H](CC(C)C)NC(=O)[C@H](Cc1ccc(O)cc1)NC(=O)[C@]1(C)CCCC=CCCC[C@](C)(NC(C)=O)C(=O)N[C@@H](C)C(=O)N[C@@H](CC2CC2)C(=O)N[C@@H](CC(C)C)C(=O)N1 [PLL7-7 variant 4, Ac-S5-Ala-Cpa-Leu-S5-Tyr-Leu-Leu-Gln-Asp-NHMe] (Ac-[S5]A[Ala(cPr)]L[S5]YLLQD-NHMe; staple 1-5)",2.4,≤ 0.1 ×10⁻⁶ cm/s,75 ± 1%,–
"CNC(=O)[C@H](Cc1ccc(O)cc1)NC(=O)[C@@H](NC(=O)[C@H](CC(C)C)NC(=O)[C@H](CC(C)C)NC(=O)[C@H](CC(N)=O)NC(=O)[C@]1(C)CCCC=CCCC[C@](C)(NC(C)=O)C(=O)N[C@@H](C)C(=O)N[C@@H](CCCCN)C(=O)N[C@@H](CC(C)C)C(=O)N1)[C@@H](C)O [PLL4-5 variant 4, Ac-S5-Ala-Lys-Leu-S5-Asn-Leu-Leu-Thr-Tyr-NHMe] (Ac-[S5]AKL[S5]NLLTY-NHMe; staple 1-5)",2.2,≤ 0.1 ×10⁻⁶ cm/s,79 ± 3%,–
"C=CCCC[C@](C)(NC(=O)[C@H](CC(C)C)NC(=O)[C@H](CC1CC1)NC(=O)[C@]1(CC=C)CCCN1C(C)=O)C(=O)N[C@@H](Cc1ccc(O)cc1)C(=O)N[C@@H](CC(C)C)C(=O)N[C@@H](CC(C)C)C(=O)N[C@@H](CCC(N)=O)C(=O)N[C@@H](CC(=O)O)C(=O)NC [PLL7-7 variant 5, Ac-PL3-Cpa-Leu-S5-Tyr-Leu-Leu-Gln-Asp-NHMe] (Ac-[αAllylPro][Ala(cPr)]L[S5]YLLQD-NHMe)",2.3,0.3 ± 0.1 ×10⁻⁶ cm/s,84 ± 2%,–
"CNC(=O)[C@H](CC(N)=O)NC(=O)[C@H](CC(C)C)NC(=O)[C@H](CC(C)C)NC(=O)[C@H](Cc1c[nH]cn1)NC(=O)[C@]1(C)CCCC=CCCC[C@](C)(NC(C)=O)C(=O)N[C@@H](C)C(=O)N[C@@H](C)C(=O)N[C@@H](CC(C)C)C(=O)N1 [PLL7-20 variant 4, Ac-S5-Ala-Ala-Leu-S5-His-Leu-Leu-Asn-NHMe] (Ac-[S5]AAL[S5]HLLN-NHMe; staple 1-5)",2.6,≤ 0.1 ×10⁻⁶ cm/s,74 ± 6%,–
"CNC(=O)[C@H](CC(=O)O)NC(=O)[C@H](Cc1c[nH]cn1)NC(=O)[C@H](CC(C)C)NC(=O)[C@H](CC(C)C)NC(=O)[C@H](CCCNC(=N)N)NC(=O)[C@]1(C)CCCC=CC[C@]2(CCCN2C(C)=O)C(=O)O[C@@H](CC(C)C)C(=O)N[C@@H](CC(C)C)C(=O)N1 (single isomer, unassigned) [PLL7-9 variant 2, Ac-PL3-Lec-Leu-S5-Arg-Leu-Leu-His-Asp-NHMe]",2.4,0.3 ± 0.1 ×10⁻⁶ cm/s,82 ± 2%,–
"CNC(=O)[C@H](Cc1ccc(O)cc1)NC(=O)[C@H](CC(=O)O)NC(=O)[C@H](CC(C)C)NC(=O)[C@H](CC(C)C)NC(=O)[C@H](Cc1ccc(O)cc1)NC(=O)[C@]1(C)CCCC=CC[C@]2(CCCN2C(C)=O)C(=O)N[C@@H](CC(C)C)C(=O)N[C@@H](CC(C)C)C(=O)N1 [PLL5-1, Ac-PL3-Leu-Leu-S5-Tyr-Leu-Leu-Asp-Tyr-NHMe] (Ac-[X1]LL[S5]YLLDY-NHMe; staple 1-4)",–,≤ 0.1 ×10⁻⁶ cm/s,36 ± 1%,2.4
"C=CCCC[C@](C)(NC(=O)[C@H](CC(C)C)NC(=O)[C@H](CC(C)C)NC(=O)[C@]1(CC=C)CCCN1C(C)=O)C(=O)N[C@@H](CCCNC(=N)N)C(=O)N[C@@H](CC(C)C)C(=O)N[C@@H](CC(C)C)C(=O)N[C@@H](Cc1c[nH]cn1)C(=O)N[C@@H](CC(=O)O)C(=O)NC [PLL7-9 variant 5, Ac-PL3-Leu-Leu-S5-Arg-Leu-Leu-His-Asp-NHMe] (Ac-[αAllylPro]LL[S5]RLLHD-NHMe)",2.5,0.5 ± 0.1 ×10⁻⁶ cm/s,91 ± 2%,–

# Source: US20230357320A1, “HELICAL STAPLED PEPTIDES AND USES THEREOF” (FOG PHARMACEUTICALS, INC., priority 2020, published 2023)
